Source: patent EP3928779A1 (Chugai Seiyaku Kabushiki Kaisha, priority 2014, dated 2016)

System: rat small-intestinal brush border membrane vesicles
Assay: Inhibitory effect on 33PO4 uptake into rat small-intestinal brush border membrane vesicles (rapid filtration method)
Format: biochemical
Details: 33PO4 uptake into rat small-intestinal BBMVs; test compound 1 µM; reacted for 60 seconds
Method in brief: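 Uptake of ^33PO4 was measured by rapid filtration and liquid scintillation counting of filter-retained vesicles, after quenching with ice-cold 110 mM NaCl/1 mM KH2PO4/10 mM HEPES pH 7.5. Vesicles were brush border membranes from the upper small intestine of female Wistar rats aged 4–5 weeks.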

Molecule | Rate of uptake inhibition (%) (1 µM)
CN1N(Cc2cccc(F)c2F)C(=O)C(C(=O)Nc2ccc(C(F)(F)F)cc2-c2ncnc(C#N)c2Cl)=C(O)C1(C)C [Example 312] | 74
CN1N(Cc2ccc(OCCCCCOCCCO)c(F)c2F)C(=O)C(C(=O)Nc2ccc(C(F)(F)F)cc2-c2cc(C(F)(F)F)ncn2)=C(O)C12CCCC2 [Example 400] | 36
C[C@]12CCCN1N(Cc1c(F)cc(OCCCCCCOC[C@H](O)CO)cc1F)C(=O)C(C(=O)Nc1ccc(C(F)(F)F)cc1-c1ccc(C(F)(F)F)nc1)=C2O [Example 155] | 77
CN1N(Cc2ccc(OCCOCCNC(=O)[C@@H](O)[C@H](O)[C@@H](O)[C@@H](O)CO)c(F)c2F)C(=O)C(C(=O)Nc2ccc(C(F)(F)F)cc2-c2cc(C(F)(F)F)ncn2)=C(O)C12CCCC2 [Example 427, 7-[[2,3-Difluoro-4-[2-[2-[[(2S,3R,4S,5S)-2,3,4,5,6-pentahydroxyhexanoyl]amino]ethoxy]ethoxy]phenyl]methyl]-10-hydroxy-6-methyl-8-oxoN-[4-(trifluoromethyl)-2-[6-(trifluoromethyl)pyrimidin-4-yl]phenyl]-6,7-diazaspiro[4.5]dec-9-ene-9-carboxamide] | 12
C[C@]12CCCN1N(Cc1c(F)cc(CCCCCCCOC[C@H](O)[C@@H](O)CO)cc1F)C(=O)C(C(=O)Nc1ccc(C(F)(F)F)cc1-c1ccc(C(F)(F)F)nc1)=C2O [Example 125, (4aR)-1-[[2,6-Difluoro-4-[7-[(2S,3S)-2,3,4-trihydroxybutoxy]heptyl]phenyl]methyl]-4-hydroxy-4a-methyl-2-oxo-N-[4-(trifluoromethyl)-2-[6-(trifluoromethyl)pyridin-3-yl]phenyl]-6,7-dihydro-5H-pyrrolo[1,2-b]pyridazine-3-carboxamide] | 76
CCCN(CCN(C)CCOC)c1ccc(CN2C(=O)C(C(=O)Nc3ccc(C(F)(F)F)cc3-c3cc(C(F)(F)F)ncn3)=C(O)C3(CCCC3)N2C)c(F)c1F [Example 444] | 24
C[C@]12CCCN1N(Cc1ccc(OCCN3CCOCC3)c(Cl)c1)C(=O)C(C(=O)Nc1ccc(C(F)(F)F)cc1-c1ccc(C(F)(F)F)nc1)=C2O [Example 149, (4aR)-1-[[3-Chloro-4-(2-morpholin-4-ylethoxy)phepyl]methyl]-4-hydroxy-4a-methyl-2-oxo-N-[4-(trifluoromethyl)-2-[6-(trifluoromethyl)pyridin-3-yl]phenyl]-6,7-dihydro-5H-pyrrolo[1,2-b]pyridazine-3-carboxamide] | 80
(4aR)-N-[2-(6-Cyano-5-methoxypyridin-1-yl)-4-(trifluoromethyl)phenyl]-1-[(2,3-difluorophenyl)methyl]-4-hydroxy-4a-methyl-2-oxo-6,7-dihydro-5H-pyrrolo[1,2-b] pyridazine-3-carboxamide [Example 114] | 86
COc1ccc(OC)c(CN2C(=O)C(C(=O)Nc3ccc(C(F)(F)F)cc3-c3ccc(C(F)(F)F)nc3)=C(O)[C@@]3(C)CCCN23)c1 [Example 176] | 75
COc1cccc(CN2C(=O)C(C(=O)Nc3ccc(C(F)(F)F)cc3-c3ccc(C(F)(F)F)nc3)=C(O)[C@@]3(C)CCCN23)c1OC [Example 175] | 85
C[C@]12CCCN1N(Cc1cccc(F)c1F)C(=O)C(C(=O)Nc1ccc(C(F)(F)F)cc1-c1cnc(Cl)nc1)=C2O [Example 67] | 91
C[C@]12CCCN1N(Cc1ccc(F)cc1)C(=O)C(C(=O)Nc1ccc(C(F)(F)F)cc1-c1ccc(C(F)(F)F)nc1)=C2O [Example 199] | 79
C[C@]12CCCN1N(Cc1ccccc1F)C(=O)C(C(=O)Nc1ccc(C(F)(F)F)cc1-c1ccc(C(F)(F)F)nc1)=C2O [Example 200] | 80
CN(C[C@H](O)[C@@H](O)[C@H](O)[C@H](O)CO)C(=O)CCOCCOCCOCCOc1ccc(CN2C(=O)C(C(=O)Nc3ccc(C(F)(F)F)cc3-c3cc(C(F)(F)F)ncn3)=C(O)C3(CCCC3)N2C)c(F)c1F [Example 423] | 5
COC(=O)COc1ccc(CN2C(=O)C(C(=O)Nc3ccc(C(F)(F)F)cc3-c3ccc(C(F)(F)F)nc3)=C(O)[C@@]3(C)CCCN23)c(F)c1F [Example 150, Methyl 2-[4-[[(4aR)-4-Hydroxy-4a-methyl-2-oxo-3-[[4-(trifluoromethyl)-2-[6-(trifluoromethyl)pyridin-3-yl]phenyl]carbamoy]-6,7-dihydro-5H-pyrrolor[1,2-b]pyridazin-1-yl]methyl]-2,3-difluorophenoxy] acetate] | 87
C[C@]12CCCN1N(Cc1ccc(SCCN3CCOCC3)c(F)c1F)C(=O)C(C(=O)Nc1ccc(C(F)(F)F)cc1-c1ccc(C(F)(F)F)nc1)=C2O.Cl [Example 163, (4aR)-1-[[2,3-Difluoro-4-(2-morpholin-4-ylethylsulfanyl)phenyl]methyl]-4-hydroxy-4a-methyl-2-oxo-N-[4-(trifluoromethyl)-2-[6-(trifluoromethyl)pyridin-3-yl]phenyl]-6,7-dihydro-5H-pyrrolo[1,2-b]pyridazine-3-carboxamide hydrochloride] | 79
C[C@]12CCCN1N(Cc1ccc(C#N)cc1)C(=O)C(C(=O)Nc1cc(F)c(Br)c(F)c1)=C2O [Example 222] | 97

Molecule | Rate of uptake inhibition (%) (1 µM)
C[C@]12CCCN1N(Cc1cccc(C#N)c1)C(=O)C(C(=O)Nc1cc(F)c(Br)c(F)c1)=C2O [Example 220] | 96
CN1N(Cc2cccc(F)c2F)C(=O)C(C(=O)Nc2ccc(C(F)(F)F)cc2-c2cc(C(F)(F)F)ncn2)=C(O)C12CCC2 [Example 300] | 74
C[C@]12CCCN1N(Cc1ccccc1F)C(=O)C(C(=O)Nc1ccc(C(F)(F)F)cc1-c1cc(C(F)(F)F)ncn1)=C2O [Example 207] | 73
COc1cccc(-c2cc(C(F)(F)F)ccc2NC(=O)C2=C(O)[C@@]3(C)CCCN3N(Cc3ccc(C#CCOCCOCCOCCO)c(F)c3F)C2=O)c1OC [Example 136] | 80
C[C@]12CCCN1N(Cc1cccc(F)c1F)C(=O)C(C(=O)Nc1ccc(C(F)(F)F)cc1-c1cnc(N3CC4(COC4)C3)c(C#N)c1)=C2O [Example 111, (4aR)-N-[2-[5-Cyano-6-(2-oxa-6-azaspiro[3.3]heptan-6-yl)pyridin-3-yl]-4-(trifluoromethyl)phenyl]-1-[(2,3-difluorophenyl)methyl]-4-hydroxy-4a-methyl-2-oxo-6.7-dihydro-5H-pyrrolo[1,2-b]pyridazine-3-carboxamide] | 56
CN(CCOc1ccc(CN2C(=O)C(C(=O)Nc3ccc(C(F)(F)F)cc3-c3cc(C(F)(F)F)ncn3)=C(O)C3(CCCC3)N2C)c(F)c1F)C1CCOC1 (stereo not shown) [Example 366] | 38
CN1N(Cc2ccc(OCCN[C@@H](CC(=O)O)C(=O)O)c(F)c2F)C(=O)C(C(=O)Nc2ccc(C(F)(F)F)cc2-c2cc(C(F)(F)F)ncn2)=C(O)C12CCCC2 [Example 381, (2S)-2-[2-[2,3-Difluoro-4-[[10-hydroxy-6-methyl-8-oxo-9-[[4-trifluoromethyl-2-[6-(trifluoromethyl)pyrimidin-4-yl]phenyl]carbamoyl]-6,7-diazaspiro[4.5]dec-9-en-7-yl]methyl]phenoxy]ethylamino]butanedioate] | 28
(4aR)-1-[(2,3-Difluorophenyl)methyl]-4a-ethyl-4-hydroxy- N-[5-methyl-2-(trifluoromethyl)furan-3-yl]-2-oxo-6,7-dihydro-5H-pyrrolo[1,2-b]pyridazine-3-carboxamide [Example 10] | 37
C[C@]12CCCN1N(Cc1cccc(Cl)c1F)C(=O)C(C(=O)Nc1ccc(C(F)(F)F)cc1-c1cc(C(F)(F)F)ncn1)=C2O [Example 209] | 76
CC(=O)NCCN(C)CCOc1ccc(CN2C(=O)C(C(=O)Nc3ccc(C(F)(F)F)cc3-c3cc(C(F)(F)F)ncn3)=C(O)C3(CCC3)N2C)c(F)c1F [Example 353] | 26
CN(CCO)CCOc1ccc(CN2C(=O)C(C(=O)Nc3ccc(C(F)(F)F)cc3-c3cc(C(F)(F)F)ncn3)=C(O)C3(CCCC3)N2C)c(F)c1F [Example 373] | 27
CSc1cc(-c2cc(C(F)(F)F)ccc2NC(=O)C2=C(O)[C@@]3(C)CCCN3N(Cc3cccc(F)c3F)C2=O)cnc1C#N [Example 113, (4aR)-N-[2-(6-Cyano-5-methylsulfanylpyridin-3-yl)-4-(trifluoromethyl)phenyl]-1-[(2,3-difluorophenyl)methyl]-4-hydroxy-4a-methyl-2-oxo-6,7-dihydro-5H-pyrrolo[1,2-b]pyridazine-3-carboxamide] | 84
CN1N(Cc2ccc(OCCCCOC[C@H](O)CO)c(F)c2F)C(=O)C(C(=O)Nc2ccc(C(F)(F)F)cc2-c2cc(C(F)(F)F)ncn2)=C(O)C12CCCC2 [Example 393] | 45
C[C@]12CCCN1N(Cc1ccc(OCCCCOC[C@H](O)CO)c(F)c1F)C(=O)C(C(=O)Nc1ccc(Cl)cc1-c1ccc(C(F)(F)F)nc1)=C2O [Example 121, (4aR)-N-[4-Chloro-2-[6-(trifluoromethyl)pyridin-3-yl]phenyl]-1-[[4-[4-[(2R)-2,3-dihydroxypropoxy]butoxy]-2,3-difluorophenyl]methyl]-4-hydroxy-4a-methyl-2-oxo-6,7-dihydro-5H-pyrrolo[1,2-b]pyridazine-3-carboxamide] | 72
CN1N(Cc2ccc(OCCN3[C@@H]4COC[C@H]3C4)c(F)c2F)C(=O)C(C(=O)Nc2ccc(C(F)(F)F)cc2-c2cc(C(F)(F)F)ncn2)=C(O)C12CCC2 [Example 339] | 66
CSC1CN(CCOc2ccc(CN3C(=O)C(C(=O)Nc4ccc(C(F)(F)F)cc4-c4cc(C(F)(F)F)ncn4)=C(O)C4(CCC4)N3C)c(F)c2F)C1 [Example 357] | 45
C[C@]12CCCN1N(Cc1ccccc1Cl)C(=O)C(C(=O)Nc1cc(F)c(Br)c(F)c1)=C2O [Example 219] | 95
